Patent publication EP1939191A1, “Furan derivatives, method of synthesis and uses thereof” (Neuropharma S.A., priority 2006, dated 2008)

Molecular target: Recombinant human glycogen synthase kinase 3 beta (Homo sapiens, UniProt P49841)
Assay: GSK-3 beta inhibition assay (33P-ATP, GS-2 peptide substrate, phosphocellulose filter counting)
Assay type: biochemical
Settings: result in percentage of enzyme activity (lower = more inhibition); for activity at 25 µM: test compound at 25µM; for activity at 50 µM: test compound at 50µM
Experimental: The GSK-3 beta activity of the compounds of formula (I) according to the present invention was determined by incubation of a mixture of recombinant human GSK-3 enzyme, a phosphate source and GSK-3 substrate in the presence and in the absence of the corresponding test compound, and by measuring the GSK-3 activity of this mixture. The compounds where tested at final concentrations of 25 and 50 µM.
Recombinant human glycogen synthase kinase 3 beta was assayed in MOPS 8 mM pH 7.3, EDTA 0.2 mM, MgCl2 10 mM and sodium orthovanadate 0.25 mM in the presence of 62.5 µM of Phospho-Glycogen Synthase Peptide-2 (GS-2), 0.5 µCi gamma-^33P-ATP and unlabelled ATP at a final concentration of 12.5 µM. The final assay volume was 20 µl. After incubation for 30 minutes at 30 °C, 15 µl aliquots were spotted onto P81 phosphocellulose papers. Filters were washed four times for at least 10 minutes each and counted with 1.5 ml of scintillation cocktail in a scintillation counter.
The compounds of formula (I) of the present invention where submitted to the above indicated assays, in order to determine both their GSK-3 inhibition activity and BACE activity inhibition. The results are indicated in Table I, in percentage of the respective enzyme activity.

Sequence of Recombinant human glycogen synthase kinase 3 beta (P49841 whole entry): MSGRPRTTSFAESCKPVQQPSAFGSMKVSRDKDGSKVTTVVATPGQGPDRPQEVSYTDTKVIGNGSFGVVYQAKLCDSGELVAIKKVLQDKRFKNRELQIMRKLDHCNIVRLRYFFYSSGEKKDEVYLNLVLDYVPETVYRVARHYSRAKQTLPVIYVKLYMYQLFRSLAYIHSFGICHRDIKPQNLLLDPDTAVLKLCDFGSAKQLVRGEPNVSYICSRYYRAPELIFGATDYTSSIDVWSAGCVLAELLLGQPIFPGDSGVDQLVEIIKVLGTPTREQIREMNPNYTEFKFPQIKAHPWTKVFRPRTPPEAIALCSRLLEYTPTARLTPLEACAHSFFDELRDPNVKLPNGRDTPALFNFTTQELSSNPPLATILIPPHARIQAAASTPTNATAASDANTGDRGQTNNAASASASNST

CC(=CC=CC(C)CCC=C(C)COC(=O)C(C)(C)C)CCCc1ccoc1 (stereo not shown) [2,2-Dimethyl-propionic acid 13-furan-3-yl-2,6,10-trimethyl-trideca-2,7,9-trienyl ester]
activity at 25 µM: 45% | activity at 50 µM: 27%

CC(C)(C)[Si](OCC(O)c1ccco1)(c1ccccc1)c1ccccc1 (stereo not shown) [2-(tert-Butyl-diphenyl-silanyloxy)-1-furan-2-yl-ethanol]
activity at 50 µM: 48.6%

OCC=Cc1ccoc1 [3-Furan-3-yl-prop-2-en-1-ol]
activity at 25 µM: 61.1% | activity at 50 µM: 55.6%

CCOC(=O)C=C(C)CCCc1ccoc1 [6-Furan-3-yl-3-methyl-hex-2-enoic acid ethyl ester]
activity at 25 µM: 83.7% | activity at 50 µM: 67.4%

CC(=CCCC(C)C=CC=C(C)CCCc1ccoc1)CO (stereo not shown) [13-Furan-3-yl-2,6,10-trimethyl-trideca-2,7,9-trien-1-ol]
activity at 25 µM: 83.7% | activity at 50 µM: 61.2%

CC(C)(C)[Si](OCCc1ccco1)(c1ccccc1)c1ccccc1 [tert-Butyl-(2-furan-2-yl-ethoxy)-diphenyl-silane]
activity at 50 µM: 47.6%

CC(C)(C)[Si](OCCCc1ccco1)(c1ccccc1)c1ccccc1 [tert-Butyl-(3-furan-2-yl-propoxy)-diphenyl-silane]
activity at 50 µM: 33.5%

CC(C)(C)[Si](OCCCCCc1ccco1)(c1ccccc1)c1ccccc1 [tert-Butyl-(5-furan-2-yl-pentyloxy)-diphenyl-silane]
activity at 50 µM: 16.1%

CC(C)(C)[Si](OCCCCCCc1ccco1)(c1ccccc1)c1ccccc1 [tert-Butyl-(6-furan-2-yl-hexyloxy)-diphenyl-silane]
activity at 50 µM: 5.08%

CC(=CC=CC(C)CCCO[Si](c1ccccc1)(c1ccccc1)C(C)(C)C)CCCc1ccoc1 (stereo not shown) [tert-Butyl-(11-furan-3-yl-4,8-dimethyl-undeca-5,7-dienyloxy)-diphenyl-silane]
activity at 25 µM: 29% | activity at 50 µM: 14%

CC(C)(C)[Si](OCCCSCc1ccco1)(c1ccccc1)c1ccccc1 [tert-Butyl-[3-(furan-2-ylmethylsulfanyl)-propoxy]-diphenyl-silane]
activity at 50 µM: 17.4%
